This note sets out measurements from patent publication US9320773B2, “Compounds and therapeutic applications related to inhibition of dendritic cell immunoreceptor (DCIR) activity and signaling events” (priority 2010, dated 2016).

Non-standard residues stand in square brackets, D forms with d. pY = N[C@@H](Cc1ccc(OP(=O)(O)O)cc1)C(=O)O; pT = C[C@@H](OP(=O)(O)O)[C@H](N)C(=O)O

Assay [1] has as its system HIV-1 NL4-3 in Raji-CD4-DCIR cells. Description: HIV-1 binding/entry assay in Raji-CD4-DCIR cells (cell-associated p24 ELISA). It counts as cell-based. The following applies: for Binding/entry: Table 3, pharmacological inhibitors, symbols not defined; for HIV-1 binding/entry: cells pretreated with inhibitor 10 min, pulsed with NL4-3 60 min, result in words. On the procedure:
(§1) FIG. 2A: Raji-CD4 and Raji-CD4-DCIR cells were either left untreated or treated with SSG (100 μg/ml) for 10 min at 37° C. Thereafter, cells were pulsed with NL4-3 for 60 min. After three washes with PBS to remove non-adsorbed virus, cell-associated virus was quantified by measuring the p24 content. Data shown correspond to the means±SD of triplicate samples from three combined independent experiments. The asterisk denotes statistically significant data (*, P<0.05; **, P<0.01). FIG. 2B: Cells were either left untransfected or transfected with a sense or antisense oligonucleotide specific for the signalling protein of interest. Next, cells were pulsed with NL4-3 for 60 min. After three washes with PBS to eliminate unbound virus, cell-associated virus was quantified by measuring the p24 content. Data shown correspond to the means±SD of triplicate samples from three combined independent experiments. The asterisk denotes statistically significant data (*, P<0.05; **, P<0.01). After gene silencing, the diminution of the targeted protein was verified by western blots, provided as an insert for each graph.
Where indicated, parental Raji-CD4 cells (DCIR-negative) or Raji-CD4-DCIR transfectants (1×10^6) were pretreated with the indicated amount of a pharmacological inhibitor for 10 min or transfected with sense or antisense oligonucleotides as described below. Cells were then pulsed with NL4-3 (100 ng of p24) for 60 min at 37° C. Next the virus-cell mixture was washed 3 times with PBS to remove unbound virus and resuspended in PBS containing 1% BSA. To assess binding/entry, the p24 content was determined by our in-house ELISA assay^33.
Raji-CD4 and Raji-CD4-DCIR cells (1×10^6 cells) were washed with OptiMEM (Invitrogen Life Technologies) without serum and antibiotics. The phosphorothioate oligodeoxynucleotides (Listed in Table 1) (Invitrogen Life Technologies) were transfected at a final concentration of 10 μM/well^35 using Oligofectamine according to the manufacturer's instructions (Invitrogen Life Technologies). Silencing efficiency was monitored by western blot analysis.
(In general: In an ELISA, binding on a coated surface is turned into a signal by an enzyme label.)

For assay [2] the test system is unchanged. The experiment in a line: HIV-1 infection assay in Raji-CD4-DCIR cells, real-time PCR of spliced Tat mRNA. In kind it is cell-based. The following applies: Table 3, pharmacological inhibitors; symbols not defined. On the procedure: FIG. 6A: Raji-CD4 and Raji-CD4-DCIR were either left untreated or preincubated with tyrosine phosphatase inhibitor SSG (100 μg/ml); Syk inhibitor piceatannol (10 μM); Src inhibitor PP2 (10 μM); classical PKC inhibitor Gö6976 (1 μM); MAPK p38 inhibitor SB203580 (2 μM), MAP kinase inhibitor PD98059 ([…]) for 10 min. FIG. 6B: Raji-CD4 and Raji-CD4-DCIR were treated with Oligofectamine and then either left untreated or exposed to a sense or an antisense oligonucleotide against different signalling proteins during 5 hours. Next, cells were exposed to NL4-3 for 24 hours. Virus infection was determined by real-time PCR of spliced Tat mRNA. Data shown correspond to the means±SD of triplicate samples from three independent experiments. The asterisk denotes statistically significant data (*, P<0.05; ***, P<0.001).
For the infection assay performed before measuring Tat mRNA, Raji-CD4 and Raji-CD4-DCIR cells were treated with the indicated inhibitor or transfected with the indicated oligonucleotide (as described below). Cells were then pulsed with NL4-3 during 24 hours. […] The expression level of Tat mRNA was measured by real-time PCR, as described below.
Expression levels of TAT splice transcripts were determined using a Rotor-Gene™ system (Corbett Life Science). […] After elution, the amount and quality of RNA was assessed by measuring the absorbance at 260 and 280 nm. […]
In general terms: Quantitative PCR measures a nucleic acid by following its amplification.

The test system of assay [3] is HIV-1 NL4-3 in Raji-CD4 cells. Description: HIV-1 binding/entry assay in parental Raji-CD4 cells (DCIR-negative). The following applies: pretreated with inhibitor 10 min, result in words. It counts as cell-based. On the procedure:
as §1, with “After gene silencing, the diminution of the targeted protein was verified by western blots, provided as an insert for each graph.” left out
Where indicated, parental Raji-CD4 cells (DCIR-negative) or Raji-CD4-DCIR transfectants (1×10^6) were pretreated with the indicated amount of a pharmacological inhibitor for 10 min or transfected with sense or antisense oligonucleotides as described below. […] To assess binding/entry, the p24 content was determined by our in-house ELISA assay^33.

The test system of assay [4] is HIV-1 NL4-3balenv in IM-MDDCs. Description: HIV-1 binding/entry in IM-MDDCs transfected with ITIM peptides (p24). It counts as cell-based. The following applies: peptides inserted with Pro-Ject, NL4-3balenv 60 min; result in words. On the procedure: (§2) FIG. 7A: Raji-CD4 cells were transduced with a retroviral vector expressing either a wild-type form of DCIR, a T6F mutant of DCIR, or a Y7F mutant of DCIR. Surface expression level of DCIR was assessed by flow cytometry using a combination of PE-labelled anti-DCIR antibody (dotted lines) and a control isotype-matched antibody (continuous lines). […] FIG. 7B: For the virus binding/entry assay shown in the left panel, the indicated cell lines were exposed to NL4-3. For the infection assay shown in the right panel, the same cells were exposed to NL4-3 for 2 hours at 37° C., and then maintained in culture for 9 days. FIG. 7C: IM-MDDCs were treated with Pro-Ject only, with a control peptide or an ITIM peptide, either not phosphorylated or phosphorylated on the tyrosine or threonine residue, during 5 min at 37° C. Next, cells were pulsed with NL4-3balenv for 60 min at 37° C. and washed extensively before measuring the p24 content (left panel). […] Cell-free culture supernatants were quantified by measuring the p24 content. […]
(§3) For assessing binding/entry, IM-MDDCs (3×10^5 cells in a final volume of 300 μl) transfected with one of the ITIM peptides were exposed to NL4-3balenv (30 ng of p24) for 60 min at 37° C. […] The p24 content was determined by ELISA. As for susceptibility of IM-MDDCs to HIV-1 infection, it was assessed by initially exposing 3×10^5 cells to NL4-3balenv (30 ng) for 2 hours at 37° C. […]

Assay [5] has as its system HIV-1 NL4-3balenv in IM-MDDCs. Description: HIV-1 infection of IM-MDDCs transfected with ITIM peptides (p24 in supernatants). In kind it is cell-based. Particulars: peptides inserted with Pro-Ject, NL4-3balenv 2 hours, culture up to 9 days; result in words. On the procedure: as §2, §3
Assay [6] concerns human primary CD4+ T cells. The experiment in a line: Apoptosis of HIV-1-infected and bystander CD4+ T cells (FITC-VAD-FMK staining). It counts as cell-based. The following applies: NL4-3-IRES-HSA infected CD4+ T cells; data not shown. The text has this:
The HIV-1-mediated induction of apoptosis in both infected and bystander CD4^+ T cells is a well-described phenomenon. The peak of apoptosis is observed usually after 2 to 3 days, the same time frame in which we detected the HIV-1-dependent induction of DCIR. Therefore, we next assessed whether there might be a connection between the virus-induced DCIR expression and apoptosis. We initially assessed the ability of NL4-3-IRES-HSA reporter virus to drive apoptosis in CD4^+ T cells using FITC-VAD-FMK staining. This fluorochrome-labeled pan-caspase inhibitor is a specific and convenient-to-use marker of apoptotic cells, which can identify very early events of apoptosis associated with caspase activation (i.e. pre-apoptotic cells). Our studies indicate that NL4-3-IRES-HSA virions can potently mediate apoptosis in human primary CD4^+ T cells (data not shown). […] To establish a link between DCIR expression and apoptosis following HIV-1 infection, we carried out a series of investigations with the broad-spectrum caspase inhibitor Z-VAD-FMK [94].

In assay [7] the test system is DCIR expression in CD4+ T cells. Description: HIV-1-mediated induction of DCIR expression in CD4+ T cells (flow cytometry). It counts as cell-based, human. The following applies: cells pre-treated before virus infection, 3 days; result in words. On the procedure:
Mitogen-activated CD4^+ T cells (1×10^6) were first either left untreated or treated for 1 h with the caspase inhibitor Z-VAD-FMK (50 nM), after which HIV-1 was added (100 ng of p24), where indicated. DCIR expression was monitored 3 days later by flow cytometry. Data shown represent the means±SD of triplicate samples from three independent experiments.
Cells (1×10^6) were first either left untreated or treated for 1 h with NAC, after which HIV-1 (100 ng of p24) was added. DCIR expression was monitored 3 days later by flow cytometry. Expression of DCIR is shown as a dotted line, whereas the continuous line represents staining obtained with an isotype-matched irrelevant control Ab. Data shown correspond to a single experiment representative of 3 independent experiments.
Cell surface expression of DCIR was monitored by flow cytometric analysis (Epics ELITE ESP, Coulter Electronics, Burlington, Canada). Cells (1×10^6 cells) were incubated for 30 min with a pool of human serum to block the unspecific binding. After washing, the cells were incubated with PE-labeled anti-DCIR (0.25 μg) for 45 min at 4° C. and then washed twice with PBS and 0.5% BSA. Non-specific staining was determined by using an isotype-matched irrelevant control antibody. After two final washes with PBS, cells were fixed in 2% paraformaldehyde for 30 min and analyzed.

As to `O=S(=O)(NCCNC/C=C/c1ccc(Br)cc1)c1cccc2cnccc12` [H89], in assay [1], the Binding/entry result is “Ø” and the HIV-1 binding/entry result is given as “not participating”. In assay [2], the Infection entry was “Ø”.
For `C/C(O)=C(\C#N)C(=O)Nc1cc(Br)ccc1Br` [LFM-A13], in assay [1], the Binding/entry entry is on record as “Ø” and the HIV-1 binding/entry result is “not involved”. Moreover, the Infection entry in assay [2] is reported as “Ø”.
For `O.O.O.O.O.O.O.O.O.O=C([O-])[C@@H]1[O][Sb]2([O-])([O][Sb]34([OH])[O][C@H]([C@H](O)CO)[C@H]([O]3)[C@H](C(=O)[O-])[O]4)[O][C@H]([C@H](O)CO)[C@@H]1[O]2.[Na+].[Na+].[Na+]` [SSG, sodium stibogluconate], the figures for the HIV-1 binding/entry result in assay [1] and in assay [3] were “decreases” and “no similar effect”, respectively.
On to “TAMRA-EIT(PO3H2)YAEVRFKNEFKS-OH ({TAMRA}-EI[pT]YAEVRFKNEFKS-OH) [ITIM peptide phosphorylated on threonine]”, for which the virus binding/entry entry in assay [4] is given as “decrease”. For the same compound, the “virus replication / infection” value in assay [5] is “decrease”.
Take “TAMRA-EITY(PO3H2)AEVRFKNES-OH ({TAMRA}-EIT[pY]AEVRFKNES-OH) [ITIM peptide phosphorylated on tyrosine]”: the virus binding/entry entry in assay [4] is recorded as “decrease”. The “virus replication / infection” value in assay [5] is “decrease”.
Turning to `O=C1Nc2ccc(Cl)cc2[C@@](C#CC2CC2)(C(F)(F)F)O1` [EFV, efavirenz], the “percentages of apoptotic cells in virus-infected and bystander cells” value in assay [6] is recorded as “significantly reduced”. Also, in assay [7], the “HIV-1-mediated DCIR expression” value is “reduced significantly”.
